pIC50: −log10 of the molar value.
Tests used:
[1] = molecular target: T1, Protein disulfide isomerase (PDI) (Homo sapiens, UniProt P07237); assay: insulin turbidimetric reductase assay; ANS displacement from PDI and b′x, intrinsic Trp fluorescence, domain mapping; format: biochemical; parameters: gene P4HB; full-length PDI; also abb′ (residues 1–331), b′xa′ (residues 219–462) and b′x
[2] = molecular target: T1, Protein disulfide isomerase (PDI); assay: insulin turbidimetric and di-eosin-GSSG reductase assays; format: biochemical; parameters: gene P4HB; full-length PDI
[3] = molecular target: T2, Protein disulfide isomerase (PDI) (Homo sapiens, UniProt P07237, I289A); assay: ANS fluorescence binding (λex […] nm), displaced by bepristats, absent with I272A
T2 construct: gene P4HB; isolated b′x domain; full-length PDI
T2 sequence (P07237 236-367 I289A limits assumed): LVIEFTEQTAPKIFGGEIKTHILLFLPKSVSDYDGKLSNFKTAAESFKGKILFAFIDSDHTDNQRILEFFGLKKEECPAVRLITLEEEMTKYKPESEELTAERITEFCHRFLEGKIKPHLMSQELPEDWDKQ

T1 sequence (P07237 18-508): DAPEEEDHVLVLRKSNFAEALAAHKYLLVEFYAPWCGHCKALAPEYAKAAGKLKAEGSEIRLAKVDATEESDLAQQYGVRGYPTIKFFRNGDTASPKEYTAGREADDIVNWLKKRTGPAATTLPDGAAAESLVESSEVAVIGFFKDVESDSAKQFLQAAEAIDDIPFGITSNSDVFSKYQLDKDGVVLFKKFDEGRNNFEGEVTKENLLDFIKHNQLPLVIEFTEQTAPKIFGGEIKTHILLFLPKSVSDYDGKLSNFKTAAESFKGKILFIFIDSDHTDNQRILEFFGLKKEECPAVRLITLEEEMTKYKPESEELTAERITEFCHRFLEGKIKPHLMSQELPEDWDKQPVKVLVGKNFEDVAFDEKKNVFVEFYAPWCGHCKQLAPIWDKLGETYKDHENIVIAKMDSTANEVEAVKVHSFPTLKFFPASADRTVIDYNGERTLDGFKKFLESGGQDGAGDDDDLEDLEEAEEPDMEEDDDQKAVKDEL

Compound	pIC50 [1]	further results
CCN(C)C(=O)C1(CCOc2ccccc2)CCN(Cc2ccc(O)c(Cl)c2)CC1 [bepristat 1a]	~6.15	–
bepristat 2a	~5.92	–
C[C@@H]1O[C@@H](OC[C@H]2O[C@@H](Oc3c(-c4ccc(O)c(O)c4)oc4cc(O)cc(O)c4c3=O)[C@H](O)[C@@H](O)[C@@H]2O)[C@H](O)[C@H](O)[C@H]1O [Q-3-R, quercetin-3-rutinoside]	–	insulin turbidimetric and di-eosin-GSSG reductase assays [2]: these other inhibitors all blocked PDI-mediated cleavage of di-eosin-GSSG when used at concentrations required to inhibit activity
O=S(=O)(O)c1cccc2cccc(Nc3ccccc3)c12 [ANS, 1-anilinonaphthalene-8-sulfonic acid]	–	ANS fluorescence binding (λex 370 nm), displaced by bepristats, absent with I272 [3]: ANS fluorescence was prominent on incubation with the isolated b′x domain and weak on incubation with isolated a, a′
